According to the supplement of paper PMC10331698:
± gives the standard deviation of the averaged measurements.

Experiments:
Experiment in all cases: level (log10 ratio to DMSO vehicle control); higher = higher biomarker level / cell amount than vehicle control
[1] = compound: FC(F)(F)C(F)(F)C(F)(F)CC1CO1 [1H,1H-Heptafluorobutyl epoxide]; conditions: in DMSO
Experimental: (§1)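 BioMAP Diversity Plus panel of 12 human primary cell co-culture systems (3C, 4H, LPS, SAg, BT, BF4T, BE3C, CASM3C, HDF3CGF, KF3CT, MyoF, Mphg). Compounds were added 1 h before stimulation and left for 24 h (MyoF 48 h; BT 72 h for soluble read-outs or 6 d for IgG). Biomarkers were read by ELISA, cytotoxicity by SRB, PBMC viability and proliferation by Alamar Blue. Each well value was divided by the mean of 8 DMSO control wells on the same plate and log10 transformed; duplicate blinded samples were tested at 4 concentrations.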

[2] = compound: O=S(=O)(O)CCC(F)(F)C(F)(F)C(F)(F)C(F)(F)C(F)(F)C(F)(F)F [6:2 Fluorotelomer sulfonic acid]; conditions: in DMSO
Experimental: as §1

[3] = compound: C=CC(=O)OCC(F)(F)C(F)(F)C(F)(F)COC(=O)C=C [1H,1H,5H,5H-Perfluoro-1,5-pentanediol diacrylate]; conditions: 6700 nM; in DMSO
Experimental: as §1

[4] = compound: FC(F)(F)C(F)(F)C(F)(F)C(F)(F)C(F)(F)C(F)(F)CC1CO1 [3-(Perfluorohexyl)-1,2-epoxypropane]; conditions: in DMSO
Experimental: as §1

[5] = compound: C=C(C)C(=O)OCCC(F)(F)C(F)(F)C(F)(F)C(F)(F)C(F)(F)C(F)(F)F [6:2 Fluorotelomer methacrylate]; conditions: in DMSO
Experimental: as §1

[6] = compound: O=S(=O)(O)C(F)(F)C(F)(F)C(F)(F)C(F)(F)C(F)(F)C(F)(F)C(F)(F)C(F)(F)C(F)(F)C(F)(F)F [Sodium perfluorodecanesulfonate]; conditions: in DMSO
Experimental: as §1

[7] = compound: NC(=O)C(F)(F)C(F)(F)C(F)(F)C(F)F; conditions: in DMSO
Experimental: as §1

| Test System | level (log10) ([1]; 6700 nM) | level (log10) ([1]; 20000 nM) | level (log10) ([1]; 60000 nM) | level (log10) ([2]; 6700 nM) | level (log10) ([2]; 20000 nM) | level (log10) ([2]; 60000 nM) | level (log10) [3] | level (log10) ([4]; 6700 nM) | level (log10) ([4]; 20000 nM) | level (log10) ([4]; 60000 nM) | level (log10) ([5]; 6700 nM) | level (log10) ([5]; 20000 nM) | level (log10) ([5]; 60000 nM) | level (log10) ([6]; 1500 nM) | level (log10) ([6]; 4400 nM) | level (log10) ([6]; 13000 nM) | level (log10) ([6]; 40000 nM) | level (log10) ([7]; 6700 nM) | level (log10) ([7]; 20000 nM) | level (log10) ([7]; 60000 nM) |
| --- | --- | --- | --- | --- | --- | --- | --- | --- | --- | --- | --- | --- | --- | --- | --- | --- | --- | --- | --- | --- |
| CASM3C:HLA-DR | -0.014 ± 0.0099 | -0.017 ± 0.0028 | -0.0165 ± 0.016 | 0.0245 ± 0.005 | -0.0115 ± 0.0035 | -0.001 ± 0.0085 | -0.0345 ± 0.018 | -0.016 ± 0.027 | -0.033 ± 0.0071 | 0.009 ± 0.057 | -0.008 ± 0.042 | -0.0015 ± 0.015 | 0.0155 ± 0.011 | 0.0555 ± 0.047 | 0.007 ± 0.024 | 0.0505 ± 0.036 | 0.0855 ± 0.0035 | -0.0125 ± 0.042 | -0.0075 ± 0.016 | -0.008 ± 0.0014 |
| 4H:CD87/uPAR | -0.0465 ± 0.06 | -0.055 ± 0.045 | -0.006 ± 0.021 | -0.0005 ± 0.029 | 0.001 ± 0.031 | -0.002 ± 0.04 | -0.0665 ± 0.13 | 0.0645 ± 0.044 | 0.0775 ± 0.018 | 0.107 ± 0.022 | -0.015 ± 0.025 | 0.0015 ± 0.019 | -0.0095 ± 0.0035 | 0.0235 ± 0.056 | 0.0145 ± 0.022 | 0.0455 ± 0.0064 | 0.0065 ± 0.013 | 0.0335 ± 0.013 | 0.044 ± 0.033 | 0.006 ± 0.038 |
| MyoF:bFGF | -0.0035 ± 0.0035 | -0.002 ± 0.0028 | -0.0025 ± 0.015 | -0.0065 ± 0.0078 | 0.019 ± 0.013 | 0.0235 ± 0.044 | 0.0025 ± 0.005 | 0.02 ± 0.02 | 0.02 ± 0.018 | 0.014 ± 0.0057 | -0.0025 ± 0.0064 | -0.0115 ± 0.018 | -0.0085 ± 0.011 | 0.0025 ± 0.005 | 0.033 | 0.015 ± 0.0057 | 0.023 ± 0.011 | -0.0125 ± 0.005 | -0.008 ± 0.017 | -0.0155 ± 0.005 |
| 3C:CD106/VCAM-1 | -0.0315 ± 0.023 | -0.0385 ± 0.013 | -0.012 ± 0.011 | -0.019 ± 0.0071 | -0.035 | -0.014 ± 0.013 | -0.179 ± 0.025 | -0.0145 ± 0.018 | -0.033 ± 0.025 | -0.0395 ± 0.011 | -0.0265 ± 0.026 | -0.029 ± 0.037 | -0.0185 ± 0.043 | -0.0035 ± 0.0035 | 0.0055 ± 0.011 | -0.016 ± 0.013 | 0.0065 ± 0.0078 | -0.001 ± 0.024 | 0.0135 ± 0.0021 | 0.007 ± 0.016 |
| 4H:CD62P/P-selectin | -0.015 ± 0.0099 | -0.007 ± 0.0014 | 0.0455 ± 0.046 | -0.004 ± 0.064 | -0.003 ± 0.051 | -0.013 ± 0.054 | -0.0825 ± 0.018 | 0.0055 ± 0.016 | -0.0015 ± 0.019 | 0.013 ± 0.017 | -0.033 ± 0.072 | -0.0065 ± 0.044 | -0.01 ± 0.0014 | -0.0165 ± 0.021 | 0.034 ± 0.018 | 0.064 ± 0.03 | 0.08 ± 0.033 | -0.017 | -0.017 ± 0.031 | 0.0195 ± 0.029 |
| HDF3CGF:Collagen I | -0.0105 ± 0.029 | 0.0175 ± 0.023 | -0.013 ± 0.028 | -0.031 ± 0.095 | -0.007 ± 0.086 | 0.056 ± 0.11 | 0.117 ± 0.0085 | -0.001 ± 0.025 | -0.0145 ± 0.012 | 0.0545 ± 0.04 | -0.0655 ± 0.022 | -0.0695 ± 0.049 | 0.0095 ± 0.097 | -0.0095 ± 0.012 | -0.01 | 0.067 ± 0.011 | 0.0845 ± 0.042 | -0.005 ± 0.058 | 0.005 ± 0.021 | 0.027 ± 0.02 |
| lMphg:CD40 | -0.005 ± 0.025 | -0.001 ± 0.016 | 0.0045 ± 0.0021 | -0.017 ± 0.011 | -0.022 ± 0.028 | -0.05 ± 0.033 | -0.0585 ± 0.015 | -0.029 ± 0.0071 | -0.0195 ± 0.005 | -0.005 ± 0.0028 | -0.0125 ± 0.016 | 0.0065 ± 0.023 | 0.0235 ± 0.005 | -0.0305 ± 0.0078 | -0.0285 ± 0.016 | -0.0455 ± 0.012 | -0.104 ± 0.018 | -0.026 ± 0.027 | -0.011 ± 0.0071 | -0.017 ± 0.0042 |
| HDF3CGF:EGFR | -0.004 ± 0.014 | -0.004 ± 0.0028 | 0.023 ± 0.047 | -0.0455 ± 0.022 | -0.0535 ± 0.025 | -0.0305 ± 0.029 | -0.016 ± 0.025 | -0.0135 ± 0.011 | -0.01 ± 0.011 | -0.0055 ± 0.036 | 0.004 ± 0.0071 | 0.0275 ± 0.028 | 0.0155 ± 0.0092 | -0.009 ± 0.067 | -0.0295 ± 0.0092 | -0.001 ± 0.0014 | 0.079 ± 0.0099 | 0.001 ± 0.033 | 0.0025 ± 0.046 | 0.0125 ± 0.043 |
| MyoF:Collagen I | 0.013 ± 0.018 | -0.0025 ± 0.00071 | -0.0105 ± 0.012 | 0.011 ± 0.025 | -0.022 ± 0.016 | 0 ± 0.0085 | -0.0165 ± 0.0035 | -0.011 ± 0.018 | -0.003 ± 0.0028 | 0.007 ± 0.02 | -0.0085 ± 0.0092 | -0.0095 ± 0.00071 | -0.009 ± 0.0099 | -0.003 ± 0.02 | -0.006 ± 0.0028 | -0.003 ± 0.0057 | -0.0415 ± 0.00071 | -0.0115 ± 0.015 | -0.002 ± 0.02 | 0.006 ± 0.017 |
| lMphg:CXCL8/IL-8 | -0.0265 ± 0.015 | -0.019 ± 0.021 | -0.0105 ± 0.029 | -0.0115 ± 0.005 | 0.022 ± 0.014 | 0.0725 ± 0.0092 | 0.03 ± 0.0099 | -0.0215 ± 0.0035 | -0.0125 ± 0.019 | 0.04 ± 0.05 | 0.0275 ± 0.005 | 0.0205 ± 0.0092 | 0.0425 ± 0.026 | 0.0185 ± 0.032 | 0.0015 ± 0.005 | 0.042 ± 0.0071 | 0.131 ± 0.013 | -0.0235 ± 0.0078 | -0.0225 ± 0.028 | 0.0185 ± 0.047 |
| lMphg:sIL-10 | -0.0515 ± 0.022 | -0.047 ± 0.031 | -0.01 ± 0.011 | -0.025 ± 0.037 | -0.015 ± 0.02 | -0.049 ± 0.0057 | -0.13 ± 0.035 | -0.0195 ± 0.029 | -0.057 ± 0.0085 | -0.059 ± 0.051 | -0.01 ± 0.089 | -0.0545 ± 0.035 | 0.0135 ± 0.0035 | -0.0235 ± 0.00071 | -0.122 ± 0.019 | -0.0595 ± 0.00071 | -0.269 ± 0.06 | -0.013 ± 0.023 | -0.0715 ± 0.005 | -0.021 ± 0.047 |
| MyoF:CD106/VCAM-1 | -0.007 ± 0.013 | -0.007 ± 0.038 | -0.0205 ± 0.03 | -0.003 ± 0.0028 | -0.012 ± 0.0099 | -0.0095 ± 0.005 | -0.212 ± 0.015 | 0.002 ± 0.013 | 0.013 ± 0.013 | 0.0205 ± 0.015 | -0.005 ± 0.037 | -0.0005 ± 0.036 | -0.003 ± 0.0042 | 0.0005 ± 0.013 | -0.0005 ± 0.013 | -0.01 ± 0.0014 | -0.035 ± 0.0085 | -0.0085 ± 0.013 | -0.0205 ± 0.013 | -0.0235 ± 0.013 |
| lMphg:CCL2/MCP-1 | -0.0075 ± 0.011 | -0.021 ± 0.021 | 0.0105 ± 0.026 | -0.0195 ± 0.012 | -0.005 ± 0.0099 | 0.027 ± 0.025 | -0.048 ± 0.0085 | -0.009 ± 0.031 | -0.0255 ± 0.026 | 0.0025 ± 0.044 | -0.005 ± 0.0085 | -0.009 ± 0.0014 | 0.004 ± 0.0071 | 0.022 ± 0.0028 | -0.0035 ± 0.013 | 0.0135 ± 0.005 | 0.0225 ± 0.026 | 0.004 | -0.0065 ± 0.012 | 0.0255 ± 0.018 |
| HDF3CGF:M-CSF | -0.017 ± 0.064 | -0.029 ± 0.044 | -0.0245 ± 0.0092 | -0.0255 ± 0.073 | -0.044 ± 0.068 | -0.082 ± 0.085 | -0.482 ± 0.027 | 0 ± 0.014 | -0.002 ± 0.0042 | -0.019 ± 0.0085 | -0.02 ± 0.0057 | -0.022 ± 0.0099 | -0.029 ± 0.0028 | 0.0325 ± 0.0078 | 0.009 ± 0.018 | 0.037 ± 0.035 | 0.0405 ± 0.0035 | -0.0065 ± 0.0078 | -0.008 ± 0.0014 | 0.017 ± 0.031 |
